Data taken from patent US10669269B2, “Substituted N-(1H-indazol-4-yl)imidazo[1,2-a]pyridine-3-carboxamide compounds as type III receptor tyrosine kinase inhibitors” (ARRAY BIOPHARMA INC., priority 2010, dated 2020).
Where a name gives a salt, the structure may show the parent alone.

Experiments:
[1] = biological target: T1, c-KIT (Homo sapiens, UniProt P10721); assay: c-KIT Cell-Based Assay (Example D); conditions: averaged IC50; phospho-c-KIT in M-07e cells stimulated with 150 ng/ml recombinant human SCF; read-out: cKIT Cell ELISA IC50
T1 construct: M-07e cells (human acute megakaryoblastic leukemia cell line) were serum-starved for 4 hours; endogenous in cells; host or cells: M-07e cells (human acute megakaryoblastic leukemia cell line)
T1 sequence (P10721 26-976): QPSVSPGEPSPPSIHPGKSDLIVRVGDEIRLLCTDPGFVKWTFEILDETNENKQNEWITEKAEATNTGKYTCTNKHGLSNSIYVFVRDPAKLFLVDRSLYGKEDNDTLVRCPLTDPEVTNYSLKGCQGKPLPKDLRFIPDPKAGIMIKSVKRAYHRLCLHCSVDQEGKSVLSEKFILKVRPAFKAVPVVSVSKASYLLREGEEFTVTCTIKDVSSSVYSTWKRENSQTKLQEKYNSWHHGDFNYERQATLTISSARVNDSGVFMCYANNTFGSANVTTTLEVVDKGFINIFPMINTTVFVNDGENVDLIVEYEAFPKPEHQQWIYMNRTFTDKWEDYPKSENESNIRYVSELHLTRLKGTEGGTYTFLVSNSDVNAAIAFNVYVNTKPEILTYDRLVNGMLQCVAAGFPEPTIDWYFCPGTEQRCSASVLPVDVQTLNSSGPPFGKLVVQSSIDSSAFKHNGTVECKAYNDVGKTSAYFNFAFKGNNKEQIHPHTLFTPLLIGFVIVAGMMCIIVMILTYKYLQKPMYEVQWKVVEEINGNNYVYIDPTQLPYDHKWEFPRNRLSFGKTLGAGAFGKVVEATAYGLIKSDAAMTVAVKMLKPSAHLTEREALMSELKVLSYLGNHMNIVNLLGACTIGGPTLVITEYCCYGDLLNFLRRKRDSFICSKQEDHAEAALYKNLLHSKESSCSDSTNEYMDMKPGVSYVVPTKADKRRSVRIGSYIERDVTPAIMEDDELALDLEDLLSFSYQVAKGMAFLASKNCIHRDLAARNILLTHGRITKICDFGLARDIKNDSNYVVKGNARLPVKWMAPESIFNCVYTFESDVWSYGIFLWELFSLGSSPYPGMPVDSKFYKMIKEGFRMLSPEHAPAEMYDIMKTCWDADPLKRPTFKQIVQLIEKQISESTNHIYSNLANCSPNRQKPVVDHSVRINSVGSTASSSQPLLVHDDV
Protocol: The ability of compounds of Formula I to inhibit c-KIT activation in cells was determined by the following assay. M-07e cells (human acute megakaryoblastic leukemia cell line) were serum-starved for 4 hours prior to treatment with compounds of Formula I for 1 hour. The concentration of compounds of Formula I was varied over a 9-point, 3-fold dilution series with 5,000 nM typically being the highest dose. Cell culture and treatment were carried out in a humidified 37° C., 5% CO2 incubator. Treated cells were stimulated with 150 ng/ml recombinant human SCF for 4 minutes to induce activation of c-KIT. Cells were lysed in a manner which preserves phosphoproteins, and the lysate was analyzed by ELISA (R&D Systems, Human Phospho-SCF R DuoSet IC DYC3527), in which total c-KIT protein in the lysate is captured and phosphotyrosine residues of c-Kit are detected. A standard curve, made using purified phospho-SCF R protein, was used to quantify phospho-c-KIT in compound-treated wells. A standard 4-parameter logistic model was fit to the inhibitor dose response curves, with the IC50 being defined as the concentration of inhibitor giving 50 percent of control (POC).

[2] = biological target: T2, cFMS (Homo sapiens, UniProt P07333); assay: cFMS Cell-Based Assay (Example C); conditions: averaged IC50; phospho-cFMS in THP-1 cells stimulated with 250 ng/mL recombinant human MCSF; read-out: cFMS Cell ELISA IC50
T2 construct: THP-1 cells (human acute monocytic leukemia cell line) were serum-starved for 4 hours; endogenous in cells; host or cells: THP-1 cells (human acute monocytic leukemia cell line)
T2 sequence (P07333 20-972): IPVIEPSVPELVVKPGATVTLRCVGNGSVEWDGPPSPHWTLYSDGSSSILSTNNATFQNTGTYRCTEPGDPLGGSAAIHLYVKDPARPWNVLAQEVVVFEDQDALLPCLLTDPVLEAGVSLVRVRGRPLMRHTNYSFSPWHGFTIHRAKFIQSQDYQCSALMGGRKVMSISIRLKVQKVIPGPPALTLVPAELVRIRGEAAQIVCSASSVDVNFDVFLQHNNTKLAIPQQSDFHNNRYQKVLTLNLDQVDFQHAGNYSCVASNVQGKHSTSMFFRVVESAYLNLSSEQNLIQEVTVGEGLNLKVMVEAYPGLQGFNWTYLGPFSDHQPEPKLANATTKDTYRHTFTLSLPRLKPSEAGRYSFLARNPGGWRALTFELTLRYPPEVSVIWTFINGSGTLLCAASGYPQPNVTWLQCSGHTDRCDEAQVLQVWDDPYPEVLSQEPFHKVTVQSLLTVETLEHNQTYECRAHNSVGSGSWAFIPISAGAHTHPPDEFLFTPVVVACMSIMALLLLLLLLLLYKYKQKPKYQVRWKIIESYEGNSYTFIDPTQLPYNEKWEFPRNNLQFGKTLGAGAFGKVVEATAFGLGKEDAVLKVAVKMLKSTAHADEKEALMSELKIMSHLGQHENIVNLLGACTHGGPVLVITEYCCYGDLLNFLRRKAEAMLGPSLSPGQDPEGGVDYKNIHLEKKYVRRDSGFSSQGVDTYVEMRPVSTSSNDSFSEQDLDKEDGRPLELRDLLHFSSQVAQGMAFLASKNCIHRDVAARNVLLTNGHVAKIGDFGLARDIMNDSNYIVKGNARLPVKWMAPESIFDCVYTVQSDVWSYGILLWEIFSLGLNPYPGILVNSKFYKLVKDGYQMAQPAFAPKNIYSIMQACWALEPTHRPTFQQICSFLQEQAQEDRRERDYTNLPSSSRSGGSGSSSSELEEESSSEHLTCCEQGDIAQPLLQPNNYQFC
Protocol: The ability of compounds of Formula I to inhibit cFMS activation in cells was determined by the following assay. THP-1 cells (human acute monocytic leukemia cell line) were serum-starved for 4 hours prior to treatment with compounds of Formula I for 1 hour. The concentration of compounds of Formula I was varied over a 9-point, 3-fold dilution series with 5,000 nM typically being the highest dose. Cell culture and treatment were carried out in a humidified 37° C., 5% CO2 incubator. Treated cells were stimulated with 250 ng/mL recombinant human MCSF for 1 minute to induce activation of cFMS. Cells were lysed in a manner which preserves phosphoproteins, and the lysate was analyzed by ELISA (R&D Systems, Human Phospho-M-CSF R DuoSet IC DYC3268), in which total cFMS protein in the lysate is captured and phosphotyrosine residues of cFMS are detected. A standard curve, made using purified phospho-M-CSF R protein, was used to quantify phospho-c-FMS in compound-treated wells. A standard 4-parameter logistic model was fit to the inhibitor dose response curves, with the IC50 being defined as the concentration of inhibitor giving 50 percent of control (POC).

[3] = biological target: T3, PDGFR beta (Homo sapiens, UniProt P09619); assay: Phospho PDGFR LICOR Cell Assay (Example B); assay type: cell-based; conditions: averaged IC50; PDGFR beta phosphorylation in HS27 human fibroblast cell line, PDGF-BB stimulation 10 minutes, normalized to total ERK
T3 construct: endogenous in cells; host or cells: HS27 human fibroblast cell line
T3 sequence (P09619 33-1106): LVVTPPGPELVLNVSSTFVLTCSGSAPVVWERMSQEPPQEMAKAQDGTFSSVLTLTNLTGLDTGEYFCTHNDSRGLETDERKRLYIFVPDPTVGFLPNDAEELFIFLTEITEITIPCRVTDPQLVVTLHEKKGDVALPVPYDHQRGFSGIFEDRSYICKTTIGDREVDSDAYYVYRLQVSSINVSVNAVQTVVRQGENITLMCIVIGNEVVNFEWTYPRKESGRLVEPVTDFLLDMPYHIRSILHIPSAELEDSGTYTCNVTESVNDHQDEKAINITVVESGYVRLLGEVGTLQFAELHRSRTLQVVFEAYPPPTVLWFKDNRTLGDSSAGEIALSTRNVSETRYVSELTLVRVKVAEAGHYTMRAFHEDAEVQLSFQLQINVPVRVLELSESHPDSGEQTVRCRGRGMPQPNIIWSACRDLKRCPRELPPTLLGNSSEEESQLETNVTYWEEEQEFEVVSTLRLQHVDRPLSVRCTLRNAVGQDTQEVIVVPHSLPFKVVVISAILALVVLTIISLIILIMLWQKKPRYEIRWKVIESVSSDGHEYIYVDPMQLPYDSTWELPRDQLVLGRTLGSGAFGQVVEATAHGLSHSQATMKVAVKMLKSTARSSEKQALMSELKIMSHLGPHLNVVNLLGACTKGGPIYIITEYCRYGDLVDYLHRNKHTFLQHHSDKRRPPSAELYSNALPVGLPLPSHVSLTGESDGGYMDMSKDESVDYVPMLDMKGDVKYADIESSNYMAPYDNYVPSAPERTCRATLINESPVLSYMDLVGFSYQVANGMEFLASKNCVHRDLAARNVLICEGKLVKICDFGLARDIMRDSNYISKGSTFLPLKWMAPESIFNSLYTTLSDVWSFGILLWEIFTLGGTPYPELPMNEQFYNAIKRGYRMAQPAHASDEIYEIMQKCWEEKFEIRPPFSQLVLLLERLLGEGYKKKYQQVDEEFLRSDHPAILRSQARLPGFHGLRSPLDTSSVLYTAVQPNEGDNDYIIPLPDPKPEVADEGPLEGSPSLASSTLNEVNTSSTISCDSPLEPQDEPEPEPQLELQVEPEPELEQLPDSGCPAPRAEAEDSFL
Protocol: Compounds were screened for inhibition of PDGFR beta phosphorylation in the HS27 human fibroblast cell line. Cells were seeded into a 96 well tissue culture plate, then incubated overnight in a 37° C./5% CO2 incubator. The following day, cells were treated for one hour with test compound dilutions. After stimulation with PDGF-BB ligand for 10 minutes, cells were washed with PBS and fixed in 3.7% formaldehyde in PBS for 10 minutes. This was followed by washing in PBS/0.2% Triton X-100 and permeabilizing in 100% MeOH for 10 minutes. Cells were incubated in blocking buffer for 1 hour. Antibodies to phosphorylated PDGFRβ and total ERK were added to the cells and incubated for 3 hours. After washing with PBS/0.2% Triton X-100, the cells were incubated with fluorescently-labeled secondary antibodies for an additional hour. Cells were then washed with PBS and analyzed for fluorescence at both wavelengths using the Odyssey Infrared Imaging System (LI-COR Biosciences). Phosphorylated PDGFR signal was normalized to total ERK signal. A standard 4-parameter logistic model was fit to the inhibitor dose response curves, with the IC50 being defined as the concentration of inhibitor giving 50 percent of control (POC).

| Compound | IC50 [1] [nM] | IC50 [2] [nM] | IC50 [3] [nM] |
| --- | --- | --- | --- |
| COCCOc1ccn2c(C(=O)Nc3cccc4c3cnn4Cc3cccc(C(N)=O)c3)cnc2c1 [Example 94, N-(1-(3-carbamoylbenzyl)-1H-indazol-4-yl)-7-(2-methoxyethoxy)imidazo[1,2-a]pyridine-3-carboxamide] | 94.8 | 46.9 | 65 |
| CNC(=O)c1cccc(Cn2ncc3c(NC(=O)c4cnc5cc(OCCOC)ccn45)cccc32)c1 [Example 95, 7-(2-Methoxyethoxy)-N-(1-(3-(methylcarbamoyl)benzyl)-1H-indazol-4-yl)imidazo[1,2-a]pyridine-3-carboxamide] | 78.2 | 31.4 | 74.3 |
| CN1CCN(CCOc2ccn3c(C(=O)Nc4cccc5c4cnn5Cc4cccc(C(=O)N(C)C)c4)cnc3c2)CC1 [Example 97, N-(1-(3-(dimethylcarbamoyl)benzyl)-1H-indazol-4-yl)-7-(2-(4-methylpiperazin-1-yl)ethoxy)imidazo[1,2-a]pyridine-3-carboxamide dihydrochloride] | 25.7 | 10.4 | 9.6 |
| CN1CCN(CCOc2ccn3c(C(=O)Nc4cccc5c4cnn5Cc4cccc(C(F)(F)F)c4)cnc3c2)CC1 [Example 98, 7-(2-(4-methylpiperazin-1-yl)ethoxy)-N-(1-(3-(trifluoromethyl)benzyl)-1H-indazol-4-yl)imidazo[1,2-a]pyridine-3-carboxamide dihydrochloride] | 4.9 | 26.3 | 5.7 |
| CN1CCN(CCOc2ccn3c(C(=O)Nc4c(Cl)ccc5c4cnn5Cc4cccc(C(F)(F)F)c4)cnc3c2)CC1 [Example 100, N-(5-chloro-1-(3-(trifluoromethyl)benzyl)-1H-indazol-4-yl)-7-(2-(4-methylpiperazin-1-yl)ethoxy)imidazo[1,2-a]pyridine-3-carboxamide] | 3.3 | 23.6 | 6 |
| Cc1cccc(Cn2ncc3c(NC(=O)c4cnc5cc(OCCN6CCN(C)CC6)ccn45)ccc(Cl)c32)n1 [Example 101, N-(7-chloro-1-((6-methylpyridin-2-yl)methyl)-1H-indazol-4-yl)-7-(2-(4-methylpiperazin-1-yl)ethoxy)imidazo[1,2-a]pyridine-3-carboxamide trihydrochloride] | 30.5 | 43.6 | 23.7 |
| CN1CCN(CCOc2ccn3c(C(=O)Nc4cccc5c4cnn5Cc4cccn(C)c4=O)cnc3c2)CC1 [Example 104, N-(1-((1-methyl-2-oxo-1,2-dihydropyridin-3-yl)methyl)-1H-indazol-4-yl)-7-(2-(4-methylpiperazin-1-yl)ethoxy)imidazo[1,2-a]pyridine-3-carboxamide dihydrochloride] | 398 | 33.7 | 78.4 |
| CN1CCN(CCOc2ccn3c(C(=O)Nc4cccc5c4cnn5Cc4ccc5[nH]cnc5c4)cnc3c2)CC1 [Example 108, N-(1-((1H-benzo[d]imidazol-5-yl)methyl)-1H-indazol-4-yl)-7-(2-(4-methylpiperazin-1-yl)ethoxy)imidazo[1,2-a]pyridine-3-carboxamide dihydrochloride] | 181 | 66.7 | 142 |
| COCCOc1ccn2c(C(=O)Nc3cccc4c3cnn4CC3CC3)cnc2c1 [Example 110, N-(1-(cyclopropylmethyl)-1H-indazol-4-yl)-7-(2-methoxyethoxy)imidazo[1,2-a]pyridine-3-carboxamide] | 168 | 380 | 1000 |
| COCCOc1ccn2c(C(=O)Nc3cccc4c3cnn4Cc3ccncc3)cnc2c1 [Example 111, 7-(2-methoxyethoxy)-N-(1-(pyridin-4-ylmethyl)-1H-indazol-4-yl)imidazo[1,2-a]pyridine-3-carboxamide] | 451 | 150 | 449 |
| COCCOc1ccn2c(C(=O)Nc3cccc4c3cnn4Cc3ccccn3)cnc2c1 [Example 112, 7-(2-methoxyethoxy)-N-(1-(pyridin-2-ylmethyl)-1H-indazol-4-yl)imidazo[1,2-a]pyridine-3-carboxamide] | 68.9 | 33.7 | 16.7 |
| COCCOc1ccn2c(C(=O)Nc3cccc4c3cnn4CC3CCOCC3)cnc2c1 [Example 113, 7-(2-methoxyethoxy)-N-(1-((tetrahydro-2H-pyran-4-yl)methyl)-1H-indazol-4-yl)imidazo[1,2-a]pyridine-3-carboxamide] | 331 | 121 | 289 |

Now from value to compound:

| IC50 [1] [nM] | IC50 [2] [nM] | IC50 [3] [nM] | Compound |
| --- | --- | --- | --- |
| 3.8 | 115 | 14.6 | COC(=O)c1cccc(Cn2ncc3c(NC(=O)c4cnc5cc(OCCN6CCN(C)CC6)ccn45)cccc32)c1 [Example 96, Methyl 3-((4-(7-(2-(4-methylpiperazin-1-yl)ethoxy)imidazo[1,2-a]pyridine-3-carboxamido)-1H-indazol-1-yl)methyl)benzoate dihydrochloride] |
| 11.4 | 5.6 | 6.4 | CN1CCN(CCOc2ccn3c(C(=O)Nc4cccc5c4cnn5Cc4cccc(C#N)c4)cnc3c2)CC1 [Example 99, N-(1-(3-cyanobenzyl)-1H-indazol-4-yl)-7-(2-(4-methylpiperazin-1-yl)ethoxy)imidazo[1,2-a]pyridine-3-carboxamide] |
| 94.9 | 26 | 17.6 | CN1CCN(CCOc2ccn3c(C(=O)Nc4cccc5c4cnn5Cc4cccnc4)cnc3c2)CC1 [Example 102, 7-(2-(4-methylpiperazin-1-yl)ethoxy)-N-(1-(pyridin-3-ylmethyl)-1H-indazol-4-yl)imidazo[1,2-a]pyridine-3-carboxamide trihydrochloride] |
| 7.2 | 7.3 | 2.7 | CN1CCN(CCOc2ccn3c(C(=O)Nc4cccc5c4cnn5Cc4ccc(C(F)(F)F)cn4)cnc3c2)CC1 [Example 103, 7-(2-(4-Methylpiperazin-1-yl)ethoxy)-N-(1-((5-(trifluoromethyl)pyridin-2-yl)methyl)-1H-indazol-4-yl)imidazo[1,2-a]pyridine-3-carboxamide trihydrochloride] |
| 2.7 | 3.3 | 2.6 | CCOc1cccc(Cn2ncc3c(NC(=O)c4cnc5cc(OCCN6CCN(C)CC6)ccn45)cccc32)n1 [Example 105, N-(1-((6-ethoxypyridin-2-yl)methyl)-1H-indazol-4-yl)-7-(2-(4-methylpiperazin-1-yl)ethoxy)imidazo[1,2-a]pyridine-3-carboxamide] |
| 748 | 159 | 558 | CN1CCN(CCOc2ccn3c(C(=O)Nc4cccc5c4cnn5Cc4cn(C)cn4)cnc3c2)CC1 [Example 106, N-(1-((1-methyl-1H-imidazol-4-yl)methyl)-1H-indazol-4-yl)-7-(2-(4-methylpiperazin-1-yl)ethoxy)imidazo[1,2-a]pyridine-3-carboxamide dihydrochloride] |
| 123 | 44.8 | 158 | CN1CCN(CCOc2ccn3c(C(=O)Nc4cccc5c4cnn5CCc4ccccn4)cnc3c2)CC1 [Example 107, 7-(2-(4-methylpiperazin-1-yl)ethoxy)-N-(1-(2-(pyridin-2-yl)ethyl)-1H-indazol-4-yl)imidazo[1,2-a]pyridine-3-carboxamide] |
